From US20260007133A1, “HERBICIDAL COMPOSITION COMPRISING AZINE COMPOUNDS” (BASF SE, priority 2022, published 2026)
Several values for one entry are separate records, joined by “and”; a condition that tells them apart may be missing. Identical values can stand only once. Like-named read-outs stand apart in the source and are kept apart here.

Assays:
Type in all cases: in vivo
[1] = tested on: Galium aparine; assay: Greenhouse pre-emergence (PRE) herbicidal test on GALAP; conditions: Galium aparine, pre-emergence, PRE, GALAP
How it was run: (§1)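 Visual rating on a 0 (normal growth) to 100 (no emergence or above-ground kill) scale at 20 DAT. Treatment was pre-emergence spray of aqueous suspension/emulsion right after sowing into loamy sand with ~3.0% humus; covered until rooted, grown at 10-25° C or 20-35° C depending on species.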

[2] = tested on: Amaranthus retroflexus; assay: Greenhouse pre-emergence (PRE) herbicidal test on AMARE; conditions: Amaranthus retroflexus, pre-emergence, 480 h, PRE, 20 DAT; for inhibition at 2 g/ha: AMARE
How it was run: (§2)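 Scoring ran from 0 (normal growth) to 100 (no emergence or above-ground parts fully destroyed) and was done 20 DAT. Application was pre-emergent in pots of loamy sand (~3.0% humus) sown per species. Plants grew at 10-25° C or 20-35° C by species.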

[3] = tested on: Digitaria sanguinalis; assay: Greenhouse post-emergence (POST) herbicidal test on DIGSA; conditions: for pest or weed control at 2 g/ha: I-3 solo 2 gai/ha
How it was run: (§3)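 Visual damage rating on a 0–100 scale, 0 meaning normal growth and 100 complete kill of above-ground parts, taken 20 days after treatment. Spray applied post-emergence to plants 3–15 cm tall in loamy sand with approximately 3.0% humus.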

[4] = tested on: Abutilon theophrasti; assay: Greenhouse pre-emergence (PRE) herbicidal test on ABUTH; conditions: Abutilon theophrasti, pre-emergence, PRE; for pest or weed control at 2 g/ha: I-3 solo 2 gai/ha
How it was run: as §2

[5] = tested on: Ambrosia artemisiifolia; assay: Greenhouse pre-emergence (PRE) herbicidal test on AMBEL; conditions: Ambrosia artemisiifolia, pre-emergence
[6] = tested on: Geranium pusillum; assay: Greenhouse pre-emergence (PRE) herbicidal test on GERPU; conditions: Geranium pusillum, pre-emergence, GERPU PRE
How it was run: as §1

[7] = tested on: Echinochloa crus-galli; assay: Greenhouse post-emergence (POST) herbicidal test on ECHCG
How it was run: as §3

[8] = tested on: Abutilon theophrasti; assay: Greenhouse post-emergence (POST) herbicidal test on ABUTH; conditions: Abutilon theophrasti, post-emergence, 432 h, POST, ABUTH, I-3 solo 2 gai/ha, 18 DAT
How it was run: as §3

Q: What does the source list for COc1c(Cl)cc(F)c(F)c1Nc1nc(N)nc(C(C)(C)F)n1 [Compound I-3]?
A: inhibition at 2 g/ha ([1]; use rate 2 gai/ha): 15%; inhibition at 8 g/ha ([1]; use rate 8 gai/ha): 75%; pest or weed control at 2 g/ha ([2]; 2 gai/ha): 90%; inhibition at 2 g/ha ([2]; 2 gai/ha, read-out: % activity solo application): 60%; inhibition at 2 g/ha ([2]; use rate 2 gai/ha, read-out: solo application % activity): 60%; % activity ([3]; DIGSA POST, use rate 2 gai/ha): 0%; % activity ([3]; DIGSA POST, use rate 8 gai/ha): 75% and 50%; inhibition at 2 g/ha ([3]; Digitaria sanguinalis, post-emergence, 432 h, POST, DIGSA, 2 gai/ha, 18 DAT, read-out: % activity solo application): 10%; inhibition at 8 g/ha ([3]; Digitaria sanguinalis, post-emergence, 432 h, POST, DIGSA, 8 gai/ha, 18 DAT, read-out: % activity solo application): 10%; pest or weed control at 2 g/ha ([3]; Digitaria sanguinalis, post-emergence, 432 h, POST, DIGSA, 18 DAT): 10%; pest or weed control at 8 g/ha ([3]; Digitaria sanguinalis, post-emergence, 432 h, POST, DIGSA, I-3 solo 8 gai/ha, 18 DAT): 10%; inhibition at 8 g/ha ([3]; Digitaria sanguinalis, post-emergence, 480 h, DIGSA POST, 20 DAT, use rate 8 gai/ha, read-out: % activity): 40%; pest or weed control at 8 g/ha ([3]; Digitaria sanguinalis, post-emergence, 480 h, POST, 8 gai/ha, 20 DAT): 40%; inhibition at 8 g/ha ([3]; Digitaria sanguinalis, post-emergence, 480 h, POST, DIGSA, 8 gai/ha, 20 DAT, read-out: % activity solo application): 85%; pest or weed control at 2 g/ha ([3]; Digitaria sanguinalis, post-emergence, 480 h, POST, DIGSA, 20 DAT): 5%; inhibition at 8 g/ha ([3]; Digitaria sanguinalis, post-emergence, 480 h, POST, DIGSA, use rate 8 gai/ha, 20 DAT, read-out: solo application % activity): 10%; solo application % activity ([3]; POST, DIGSA, use rate 2 gai/ha, 20 DAT): 0%; pest or weed control at 2 g/ha ([4]; 432 h, ABUTH, 18 DAT): 70%; pest or weed control at 8 g/ha ([4]; 480 h, 8 gai/ha, 20 DAT): 70%; inhibition at 2 g/ha ([4]; 480 h, ABUTH, 2 gai/ha, 20 DAT, read-out: % activity solo application): 25%; inhibition at 8 g/ha ([4]; 480 h, ABUTH, 8 gai/ha, 20 DAT, read-out: % activity solo application): 80%; pest or weed control at 2 g/ha ([4]; 480 h, ABUTH, 20 DAT): 10%; inhibition at 2 g/ha ([4]; 480 h, ABUTH, use rate 2 gai/ha, 20 DAT, read-out: solo application % activity): 25%; inhibition at 8 g/ha ([4]; 480 h, ABUTH, use rate 8 gai/ha, 20 DAT, read-out: % activity): 70%; inhibition at 8 g/ha ([4]; 480 h, ABUTH, use rate 8 gai/ha, 20 DAT, read-out: solo application % activity): 85%; inhibition at 2 g/ha ([4]; 480 h, use rate 2 gai/ha, 20 DAT, read-out: % activity): 10%; inhibition at 2 g/ha ([4]; ABUTH, use rate 2 gai/ha, read-out: % activity): 65%; inhibition at 4 g/ha ([4]; ABUTH, use rate 4 gai/ha): 65%; inhibition at 2 g/ha ([5]; 240 h, PRE, use rate 2 gai/ha, 10 DAT, read-out: % activity): 10%; inhibition at 8 g/ha ([5]; 240 h, PRE, use rate 8 gai/ha, 10 DAT, read-out: % activity): 65%; inhibition at 2 g/ha ([5]; 480 h, AMBEL PRE, 20 DAT, use rate 2 gai/ha, read-out: % activity): 50%; inhibition at 2 g/ha ([5]; 480 h, PRE, AMBEL, 2 gai/ha, 20 DAT, read-out: % activity solo application): 10%; inhibition at 8 g/ha ([5]; 480 h, PRE, AMBEL, 8 gai/ha, 20 DAT, read-out: % activity solo application): 45%; inhibition at 2 g/ha ([5]; 480 h, PRE, AMBEL, use rate 2 gai/ha, 20 DAT, read-out: solo application % activity): 10%; inhibition at 8 g/ha ([5]; 480 h, PRE, AMBEL, use rate 8 gai/ha, 20 DAT, read-out: solo application % activity): 45%; inhibition at 8 g/ha ([5]; 480 h, PRE, use rate 8 gai/ha, 20 DAT, read-out: % activity): 90%; inhibition at 4 g/ha ([5]; PRE, AMBEL, use rate 4 gai/ha): 25%; inhibition at 2 g/ha ([6]; use rate 2 gai/ha): 0%; inhibition at 8 g/ha ([6]; use rate 8 gai/ha): 15%; % activity ([7]; ECHCG POST, use rate 2 gai/ha): 25%; % activity ([7]; ECHCG POST, use rate 8 gai/ha): 40%; inhibition at 2 g/ha ([7]; Echinochloa crus-galli, post-emergence, 432 h, POST, ECHCG, 2 gai/ha, 18 DAT, read-out: % activity solo application): 0%; pest or weed control at 2 g/ha ([7]; Echinochloa crus-galli, post-emergence, 432 h, POST, ECHCG, I-3 solo 2 gai/ha, 18 DAT): 0%; inhibition at 2 g/ha ([7]; Echinochloa crus-galli, post-emergence, 480 h, ECHCG POST, 20 DAT, use rate 2 gai/ha, read-out: % activity): 10%; inhibition at 8 g/ha ([7]; Echinochloa crus-galli, post-emergence, 480 h, ECHCG POST, 20 DAT, use rate 8 gai/ha, read-out: % activity): 55%; pest or weed control at 2 g/ha ([7]; Echinochloa crus-galli, post-emergence, 480 h, POST, 2 gai/ha, 20 DAT): 10%; inhibition at 2 g/ha ([7]; Echinochloa crus-galli, post-emergence, 480 h, POST, ECHCG, use rate 2 gai/ha, 20 DAT, read-out: solo application % activity): 0%; inhibition at 4 g/ha ([7]; Echinochloa crus-galli, post-emergence, 480 h, POST, ECHCG, use rate 4 gai/ha, 20 DAT): 35%; inhibition at 8 g/ha ([7]; Echinochloa crus-galli, post-emergence, 480 h, POST, ECHCG, use rate 8 gai/ha, 20 DAT, read-out: % activity): 50%; inhibition at 8 g/ha ([7]; Echinochloa crus-galli, post-emergence, 480 h, POST, ECHCG, use rate 8 gai/ha, 20 DAT, read-out: solo application % activity): 10%; inhibition at 8 g/ha ([7]; Echinochloa crus-galli, post-emergence, ECHCG POST, use rate 8 gai/ha, read-out: % activity): 35%; inhibition at 2 g/ha ([7]; Echinochloa crus-galli, post-emergence, POST, ECHCG, use rate 2 gai/ha, read-out: % activity): 30%; pest or weed control at 2 g/ha [8]: 35%
